Measurements taken from patent US20220331303A1, “USE OF AN OREXIN 2 RECEPTOR AGONIST FOR THE TREATMENT OF EXCESSIVE SLEEPINESS” (Takeda Pharmaceutical Company Limited, priority 2019, published 2022).

Test system: sleep-deprived healthy volunteers
Test: Polysomnography (PSG) of recovery sleep after sleep deprivation in healthy volunteers
Format: in vivo, human
Experimental: Exploratory objectives in sleep-deprived healthy volunteers were as follows: • 1. To compare the effects of Compound A (LD and HD) and modafinil (300 mg) on promoting wakefulness as measured by MWT. • 2. To determine PK-PD relationships for selected PD measures. • 3. To evaluate PK-BP relationships in BP change after Compound A administration. • 4. To compare various polysomnography (PSG) parameters between Day −1 (predose) and Day 2 (recovery sleep). • 5. To determine whether there is any difference in the PSG parameters on Day 2 (recovery sleep) between Compound A and placebo or modafinil. • 6. To evaluate the continuous electroencephalogram (EEG) obtained during the MWTs for power spectra changes for Compound A (LD and HD) versus placebo, Compound A (LD and HD) versus modafinil, and modafinil versus placebo.
During the day before dosing on Day 1, participants were administered the KSS at scheduled timepoints. A practice MWT session was performed on Day 1 treatment period 1 (only once during the entire study) to familiarize subjects with the procedures. Study drug was administered in the clinic in the evening on Day 1 of each treatment period. Subjects underwent the MWT and KSS at specified timepoints after the start of the infusion. Subjects were required to stay awake between the MWT tests. Following completion of the IV infusion on Day 2, subjects underwent an additional MWT test. When the final MWT test and cognitive testing were completed, subjects were allowed to sleep (recovery sleep) for approximately 6 hours. PSG recording was collected during this time. Subjects were discharged from the unit after completion on Day 2 with continuing actigraphy upon discharge (to begin on Day −6 before the next treatment period). The interval between each subsequent treatment period was at least 7 days to ensure that the subject's circadian rhythm had returned to a normal cycle. Subject's vital signs, including BP, were monitored during the dosing and testing period. Blood samples for determination of Compound A plasma concentrations were collected at specified timepoints on Days 1 and 2 of each treatment period. Subjects completed the Columbia-Suicide Severity Rating Scale (C-SSRS) during screening, before study drug administration, and before discharge on Day 2 of each treatment period.
The PSGs assess recovery sleep during the day after the end of the sleep deprivation period. There were no corrections for multiple comparisons. […]

[1] = M: Modafinil 300 mg, recovery sleep
[2] = Modafinil 300 mg, recovery sleep

In the case of `NC(=O)C[S+]([O-])C(c1ccccc1)c1ccccc1` (stereo not shown) [Modafinil, modafinil, reference compound], the “Stage N3 Duration LS Mean” value (M: Modafinil 300 mg) is reported as 51.61 min, the “Stage N3 Duration LS Mean Difference vs placebo Estimate” value (M: Modafinil 300 mg) is reported as -29.78 min and the “Stage REM % LS Mean” value (M: Modafinil 300 mg) is reported as 17.46%. The “Stage REM % LS Mean Difference vs placebo Estimate” value (M: Modafinil 300 mg) was −3.92%, the “Stage REM Duration LS Mean” value (M: Modafinil 300 mg) was 41.38 min and the “Stage REM Duration LS Mean Difference vs placebo Estimate” value (M: Modafinil 300 mg) was -25.18 min. For the same molecule, the “Stage Wake % LS Mean” value (M: Modafinil 300 mg) was 23.01%, the “Stage Wake % LS Mean Difference vs placebo Estimate” value (M: Modafinil 300 mg) was 12.71% and the “Stage Wake Duration LS Mean” value (M: Modafinil 300 mg) was 60.92 min. For the same molecule, the “Stage Wake Duration LS Mean Difference vs placebo Estimate” value (M: Modafinil 300 mg) was 25.39 min, the “Total Arousal Index LS Mean” value (M: Modafinil 300 mg) was 14.28 and the “Total Arousal Index LS Mean Difference vs placebo Estimate” value (M: Modafinil 300 mg) was 4.28. The “Total Arousal LS Mean” value (M: Modafinil 300 mg) was 51.11, the “Total Arousal LS Mean Difference vs placebo Estimate” value (M: Modafinil 300 mg) was 0.70 and the “Total Leg Movements LS Mean” value (M: Modafinil 300 mg) was 23.91. For the same molecule, the “Total Leg Movements LS Mean Difference vs placebo Estimate” value (M: Modafinil 300 mg) was 4.97, the “Total Leg Movements N1 LS Mean” value (M: Modafinil 300 mg) was 2.19 and the “Total Leg Movements N1 LS Mean Difference vs placebo Estimate” value (M: Modafinil 300 mg) was 0.93. The “Total Leg Movements N2 LS Mean” value (M: Modafinil 300 mg) was 10.10, the “Total Leg Movements N2 LS Mean Difference vs placebo Estimate” value (M: Modafinil 300 mg) was 1.56 and the “Total Leg Movements N3 LS Mean” value (M: Modafinil 300 mg) was 2.61. The “Total Leg Movements N3 LS Mean Difference vs placebo Estimate” value (M: Modafinil 300 mg) was 0.99, the “Total Leg Movements REM LS Mean” value (M: Modafinil 300 mg) was 5.75 and the “Total Leg Movements REM LS Mean Difference vs placebo Estimate” value (M: Modafinil 300 mg) was 0.00. The “Total Leg Movements with Awakening LS Mean” value (M: Modafinil 300 mg) was 3.14, the “Total Leg Movements with Awakening LS Mean Difference vs placebo Estimate” value (M: Modafinil 300 mg) was 1.39 and the “Total Leg Movements with Microarous LS Mean” value (M: Modafinil 300 mg) was 3.44. For the same molecule, the “Total Leg Movements with Microarous LS Mean Difference vs placebo Estimate” value (M: Modafinil 300 mg) was 1.43, the “Total Leg Movements with Resp Event LS Mean” value (M: Modafinil 300 mg) was 0.04 and the “Total Leg Movements with Resp Event LS Mean Difference vs placebo Estimate” value (M: Modafinil 300 mg) was −0.01. The “Total Leg Movements without Arousal LS Mean” value (M: Modafinil 300 mg) was 20.42, the “Total Leg Movements without Arousal LS Mean Difference vs placebo Estimate” value (M: Modafinil 300 mg) was 3.50 and the “Total Recording Time LS Mean” value (M: Modafinil 300 mg) was 321.98 min. The “Total Recording Time LS Mean Difference vs placebo Estimate” value (M: Modafinil 300 mg) was -34.92 min, the “Total Sleep Time LS Mean” value (M: Modafinil 300 mg) was 224.54 min and the “Total Sleep Time LS Mean Difference vs Placebo Estimate” value (M: Modafinil 300 mg) was -84.93 min. The “Wake After Persistent Sleep LS Mean” value (M: Modafinil 300 mg) was 47.63 min, the “Wake After Persistent Sleep LS Mean Difference vs placebo Estimate” value (M: Modafinil 300 mg) was 13.00 min and the “Wake After Sleep Onset LS Mean” value (M: Modafinil 300 mg) was 60.92 min. For the same molecule, the “Wake After Sleep Onset LS Mean Difference vs placebo Estimate” value (M: Modafinil 300 mg) was 25.39 min, the “PSG Awakenings LS Mean” value [1] was 5.38 and the “PSG Awakenings LS Mean Difference vs Placebo Estimate” value [1] was 0.89. The “PSG N1 Latency LS Mean” value [1] was 6.07 min, the “PSG N1 Latency LS Mean Difference vs Placebo Estimate” value [1] was 0.71 min and the “PSG N2 Latency LS Mean” value [1] was 8.62 min. The “PSG N2 Latency LS Mean Difference vs Placebo Estimate” value [1] was 1.98 min, the “PSG N3 Latency LS Mean” value [1] was 38.00 min and the “PSG N3 Latency LS Mean Difference vs Placebo Estimate” value [1] was 10.73 min. For the same molecule, the “PSG Per. Slp LS Mean” value [1] was 26.19 min, the “PSG Per. Slp LS Mean Difference vs Placebo Estimate” value [1] was 19.32 min and the “PSG REM Latency LS Mean” value [1] was 71.67 min. For the same molecule, the “PSG REM Latency LS Mean Difference vs Placebo Estimate” value [1] was 16.73 min, the “PSG Sleep Efficiency LS Mean” value [1] was 68.28% and the “PSG Sleep Efficiency LS Mean Difference vs Placebo Estimate” value [1] was −18.44%. For the same molecule, the “PSG Sleep Onset LS Mean” value [1] was 5.99 min, the “PSG Sleep Onset LS Mean Difference vs Placebo Estimate” value [1] was 2.00 min and the “PSG Spontaneous Arousal Index LS Mean” value [1] was 11.91. For the same molecule, the “PSG Spontaneous Arousal Index LS Mean Difference vs Placebo Estimate” value [1] was 2.98, the “PSG Spontaneous Arousal LS Mean” value [1] was 42.14 and the “PSG Spontaneous Arousal LS Mean Difference vs Placebo Estimate” value [1] was −2.93. The “PSG Stage N1 % LS Mean” value [1] was 10.14%, the “PSG Stage N1 % LS Mean Difference vs Placebo Estimate” value [1] was 4.05% and the “PSG Stage N1 Duration LS Mean” value [1] was 19.12 min. The “PSG Stage N1 Duration LS Mean Difference vs Placebo Estimate” value [1] was 0.72 min, the “PSG Stage N2 % LS Mean” value [1] was 50.94% and the “PSG Stage N2 % LS Mean Difference vs Placebo Estimate” value [1] was 4.24%. The “PSG Stage N2 Duration LS Mean” value [1] was 111.09 min, the “PSG Stage N2 Duration LS Mean Difference vs Placebo Estimate” value [1] was -32.99 min and the “PSG Stage N3 % LS Mean” value [1] was 21.61%. The “PSG Stage N3 % LS Mean Difference vs Placebo Estimate” value [1] was −4.22%, the “PSG sleep efficiency, LS mean difference vs placebo” value [2] was −18.44% and the “PSG spontaneous arousal index, LS mean difference vs placebo” value [2] was 2.98. For the same molecule, the “PSG stage N1 %, LS mean difference vs placebo” value [2] was 4.05%, the “PSG stage N2 duration, LS mean difference vs placebo” value [2] was -32.99 min and the “PSG stage N3 %, LS mean difference vs placebo” value [2] was −4.22%. For the same molecule, the “PSG stage N3 duration, LS mean difference vs placebo” value [2] was −29.78, the “PSG stage REM %, LS mean difference vs placebo” value [2] was −3.92% and the “PSG stage REM duration, LS mean difference vs placebo” value [2] was -25.18 min. The “PSG stage wake %, LS mean difference vs placebo” value [2] was 12.71%, the “PSG stage wake duration, LS mean difference vs placebo” value [2] was 25.39 min and the “PSG time to per. slp (persistent sleep), LS mean difference vs placebo” value [2] was 19.32 min. The “PSG total arousal index, LS mean difference vs placebo” value [2] was 4.28, the “PSG total recording time, LS mean difference vs placebo” value [2] was -34.92 min and the “PSG total sleep time, LS mean difference vs placebo” value [2] was -84.93 min. For the same molecule, the “PSG wake after sleep onset, LS mean difference vs placebo” value [2] was 25.39 min.
